The source of these data is PubChem BioAssay AID977628 (Broad Institute, 2014).

Assay [1] concerns E. coli mixed WT/h24 culture total growth, OD600, 24 h. Nature of the assay: E. coli growth inhibition, wild-type GFP versus h24 humanized RFP strain, dose response, h24 mutant RFP vs wild-type GFP, cherry-pick (AID 977628).
Assay [2] deals with E. coli WT GFP strain growth, fluorescence, 24 h. The assay is described as above.

Results filed as inconclusive are left out. Activity calls are given as the source filed them.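 The calls were made as follows: active = compound lowering the normal-ribosome reporter at least twice as much as the humanized-ribosome reporter, growth loss under a set limit; inconclusive = no clear call, values can overlap the other calls; inactive = the rest.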

The compound `Cc1n[nH]c(C)c1S(=O)(=O)N1CCCC(C(=O)Nc2ccc(Br)cc2)C1` (stereo unspecified) registered an AC50 in assay [1] of over 100 µM.

As to `COCC#Cc1ccc2c(c1)O[C@H](CN(C)C(=O)c1ccccc1)[C@@H](C)CN([C@H](C)CO)S2(=O)=O`, in assay [1], the AC50 was over 100 µM.

In the case of `CCOC(=O)Cc1nnc(NC(=O)CSc2nc3ccccc3[nH]2)s1`, the AC50 in assay [1] is over 100 µM.

`CCC(C(=O)Nc1ccsc1C(=O)OC)c1ccccc1` (stereo unspecified): the AC50 in assay [1] was over 100 µM.

Turning to `c1ccc(Nc2ccc3ccccc3c2)cc1`, the AC50 in assay [1] was over 100 µM.

With `COc1ccc(C(=O)C[n+]2ccc3c(c2)nc(-c2cc(OC)c(OC)cc2OC)n3C)cc1`, in assay [1], the AC50 is over 100 µM.

In the case of `CCN(CC)S(=O)(=O)c1ccc(N2CCCC2)c(NC(=O)c2ccccc2OC)c1`, the AC50 in assay [1] is over 100 µM.

`O=C1c2ccccc2CSc2c(O)cccc21`: in assay [1], the AC50 was over 100 µM.

On to `O=C(Nc1ccc(F)c(Cl)c1)C1CC2CCC1C2` (stereo unspecified), for which, in assay [1], the AC50 is over 100 µM.

For the compound `COC(=O)CNC(=O)COC(=O)c1ccc(Cl)nc1`, the AC50 in assay [1] was over 100 µM.

In turn, `NS(=O)(=O)c1cc(C(=O)OCC(=O)Nc2ccccc2[N+](=O)[O-])ccc1Cl` showed an AC50 in assay [1] of over 100 µM.

In assay [1], `COc1cc(CCN(C(=O)c2cc3ccccc3[nH]2)C(c2ccccn2)c2nc3ccccc3[nH]2)cc(OC)c1` (stereo unspecified) registered an AC50 of over 100 µM.

For the compound `O=C(Nc1ccc(Cl)cn1)c1ccc([N+](=O)[O-])o1`, the AC50 in assay [1] was over 100 µM.

`COc1ccc(CSc2nc3ccccc3c(=O)n2CCCN2CCOCC2)cc1F`: the AC50 in assay [1] was over 100 µM.

For `Cc1cc(C)c(OCCN(C)Cc2ccccc2)c(Br)c1`, in assay [1], the AC50 was over 100 µM.

Compound `Cc1ccc(S(=O)(=O)N2CCCCC2C(=O)N2CCN(c3ccccc3F)CC2)cc1` (stereo unspecified) had an AC50 in assay [1] of over 100 µM.

Consider `O=C(CSCc1c(Cl)cccc1Cl)NCc1ccccn1`, for which, in assay [1], the AC50 is over 100 µM.

In assay [1], `Cc1ccc(S(=O)(=O)NCc2c(-c3ccccc3)noc2C)cc1` showed an AC50 of over 100 µM.

`Cc1ccccc1SCC(=O)OCC(=O)Nc1sccc1C(N)=O` registered an AC50 in assay [1] of over 100 µM.

The compound `COc1ccccc1C1CCN(C(=O)c2cccs2)CC1` registered an AC50 in assay [1] of over 100 µM.

`CC(C)Oc1nc(-c2ccccc2Cl)nc2ccccc12` came in with an AC50 in assay [1] of over 100 µM.

Turning to `COc1ccc2c(c1)-c1nc(N)sc1CC2`, in assay [1], the AC50 is over 100 µM.

`COc1ccc(-c2csc(NC(=O)c3ccoc3C)n2)cc1` showed an AC50 in assay [1] of over 100 µM.

For the compound `CC(=O)c1ccc(Sc2ccccc2N)c([N+](=O)[O-])c1`, in assay [1], the AC50 was over 100 µM.

On to `O=C(Nc1ccccc1N1CCOCC1)C1CCCCN1S(=O)(=O)c1ccccc1` (stereo unspecified), for which the AC50 in assay [1] was over 100 µM.

`CC(=O)c1ccc(OCC(=O)Nc2ccc3c(c2)CCC3)cc1` came in with an AC50 in assay [1] of over 100 µM.

In turn, `Cc1ccsc1C(=O)C1CCCN(Cc2cc(F)ccc2-n2cccn2)C1` (stereo unspecified) displayed an AC50 in assay [1] of over 100 µM.

With `COc1ccc(OC)c(S(=O)(=O)Nc2cccc3ccc(O)cc23)c1`, the AC50 in assay [1] was over 100 µM.

As to `O=C(O)CSc1nnc(-c2ccc(Cl)cc2Cl)n1-c1ccc(Br)cc1`, in assay [2], the AC50 was > 100 µM (inactive).

Consider `O=C(c1cnc(Cc2c[nH]c3ccccc23)c(I)c1)N1CCCCC1`, for which the AC50 in assay [2] is > 100 µM (inactive).

For `CCOC(=O)c1cnc2c(ccc3ccccc32)c1NCCCN(C)C`, the AC50 in assay [2] is > 100 µM (inactive).

`Cc1ccc(S(=O)(=O)N2CC(=O)Nc3ccccc32)cc1C`: the AC50 in assay [2] was > 100 µM (inactive).

On to `COc1cccc(C(NC(C)=O)c2nc(-c3ccccc3OC)cs2)c1` (stereo unspecified), for which, in assay [2], the AC50 was > 100 µM (inactive).

As for `O=C(O)c1nn2c(C(F)(F)F)cc(-c3cccs3)nc2c1Cl`, the AC50 in assay [2] was > 100 µM (inactive).

Regarding `O=C(Cn1cnc2ccccc21)c1ccc(Br)cc1`, the AC50 in assay [2] is > 100 µM (inactive).

As to `COc1ccc(NC(=O)CN(C)C(=O)c2cc(C3CC3)nn2-c2ccccc2)cc1`, the AC50 in assay [2] was > 100 µM (inactive).

`CC1CCCCN1CC(O)COCCC12CC3CC(CC(C3)C1)C2` (stereo unspecified): the AC50 in assay [2] was > 100 µM (inactive).

Regarding `COc1ccccc1CNC(=O)CSc1ccc(C)cc1`, in assay [2], the AC50 was > 100 µM (inactive).

With `COc1ccc(Cn2c(=O)c3[nH]cnc3n(-c3ccc(C)cc3)c2=O)cc1`, the AC50 in assay [2] was > 100 µM (inactive).

Regarding `CCC(C)C(=O)Nc1nc2ccc(OC)cc2s1` (stereo unspecified), the AC50 in assay [2] is > 100 µM (inactive).

For `CCOc1ccc2nc(SCC(=O)Nc3cccc(S(=O)(=O)NC4=NCCCCC4)c3)[nH]c2c1`, the AC50 in assay [2] was > 100 µM (inactive).

On to `COc1cccc(NC(=O)C2CCC(CNS(=O)(=O)c3cccc4cccnc34)CC2)c1` (stereo unspecified), for which, in assay [2], the AC50 was > 100 µM (inactive).

`COC(=O)c1cc(C(=O)c2c(C)cc3ccccn23)cc([N+](=O)[O-])c1`: the AC50 in assay [2] is > 100 µM (inactive).

With `CC(C)=C(c1ccc(Cl)cc1)c1c(N)ncnc1N`, the AC50 in assay [2] is > 100 µM (inactive).

With `CC1CCCN(c2ccc(C(=O)NCCc3ccccc3)cn2)C1` (stereo unspecified), the AC50 in assay [2] is > 100 µM (inactive).

With `O=C(CCCOc1ccc(Cl)cc1Cl)Nc1ccccc1C(=O)O`, the AC50 in assay [2] is > 100 µM (inactive).

On to `O=C(O)CC1(CC(=O)NCc2ccc(-c3cccs3)cc2)CCCCC1`, for which, in assay [2], the AC50 is > 100 µM (inactive).

Take `COc1ccccc1Cn1c(=S)[nH]c2ccc(F)cc2c1=O`: in assay [2], the AC50 is > 100 µM (inactive).

With `COc1cccc(NC(=O)C2CCC(CNS(=O)(=O)c3cccs3)CC2)c1` (stereo unspecified), the AC50 in assay [2] is > 100 µM (inactive).

With `CN(C)CCCNc1ccc(-c2cc(Nc3cccc(Cl)c3)ncn2)cn1`, the AC50 in assay [2] was > 100 µM (inactive).

Take `CC1(C(=O)NS(=O)(=O)c2cccs2)CCN1C(=O)C1(c2ccc(Cl)cc2)CCC1` (stereo unspecified): the AC50 in assay [2] was > 100 µM (inactive).

In the case of `COc1ccc(NS(=O)(=O)c2cc(NC(=O)CNC(=O)c3cccc(OC)c3)ccc2C)cc1`, in assay [2], the AC50 was > 100 µM (inactive).

With `COc1ccc(OC)c(S(=O)(=O)Nc2cccc3ccccc23)c1`, the AC50 in assay [2] is > 100 µM (inactive).

Consider `CC1(C(=O)NS(=O)(=O)c2ccc3c(c2)CCO3)CCN1C(=O)c1ccccc1CCc1ccccc1` (stereo unspecified), for which the AC50 in assay [2] is > 100 µM (inactive).

Take `O=C(Cc1cccc(NC(=O)C2CCN(C(=O)C3CCCCC3)CC2)c1)Nc1cccc(C(=O)N2CCCC2)c1`: in assay [2], the AC50 is > 100 µM (inactive).

As for `Cc1cc(Br)ccc1SCC(=O)OCC(=O)NCc1ccco1`, the AC50 in assay [2] was > 100 µM (inactive).

Regarding `Cc1ccc(N2C(=O)NC(NS(=O)(=O)c3ccccc3)(C(F)(F)F)C2=O)cc1C` (stereo unspecified), in assay [2], the AC50 was > 100 µM (inactive).

As for `Fc1ccc(-c2nnc(-c3ccc4ccccc4c3)o2)cc1`, the AC50 in assay [2] was > 100 µM (inactive).

With `O=C(CN1CCCCC1)Nc1ccccc1-c1ccccc1`, the AC50 in assay [2] is > 100 µM (inactive).

Take `c1cncc(-c2nc3cc4ccccc4cc3[nH]2)c1`: the AC50 in assay [2] is > 100 µM (inactive).

For `O=C(CSc1ccccc1)Nc1cccc(NC(=O)c2ccco2)c1`, the AC50 in assay [2] is > 100 µM (inactive).

Take `CCOC(=O)Cc1csc(NC(=O)c2cc3ccccc3o2)n1`: in assay [2], the AC50 is > 100 µM (inactive).

For `O=C(Nc1ccc2c(c1)OCCO2)c1cccnc1Oc1ccc(Cl)cc1`, the AC50 in assay [2] is > 100 µM (inactive).

Turning to `COc1ccc(OC)c(N(CC(=O)Nc2ccccc2F)S(=O)(=O)c2ccccc2)c1`, the AC50 in assay [2] is > 100 µM (inactive).

For `Cc1cccc(CN2C(=O)c3ccccc3Sc3ccc(C(=O)O)cc32)c1`, the AC50 in assay [2] was > 100 µM (inactive).

With `COc1ccccc1CN1Cc2ccccc2Oc2ccccc2S1(=O)=O`, the AC50 in assay [2] was > 100 µM (inactive).

`COc1cccc(C2c3cc4c(cc3OC(N3CCCC3)C2C)OCO4)c1O` (stereo unspecified): the AC50 in assay [2] is > 100 µM (inactive).

Consider `CC(C)C[C@@H](CSc1ccccc1)N1CCN(CC(C)C)CCC1=O`, for which the AC50 in assay [2] is > 100 µM (inactive).

Turning to `c1ccc(SCc2nc3ccccc3s2)nc1`, the AC50 in assay [2] is > 100 µM (inactive).

As for `CCn1nc(C(=O)OCc2cccc(S(=O)(=O)N(C)C)c2)c2ccccc2c1=O`, the AC50 in assay [2] was > 100 µM (inactive).

Take `CCC(C(=O)NCCc1ccc(C)cc1)n1nc(C)c2c(C)n(-c3ccccc3)nc2c1=O` (stereo unspecified): in assay [2], the AC50 was > 100 µM (inactive).

Take `CCN(c1cccc2ccccc12)S(=O)(=O)c1ccc(Cl)nc1`: the AC50 in assay [2] is > 100 µM (inactive).

Regarding `COC(=O)c1ccc2nc(-c3cccc(Br)c3)c(Cc3ccsc3)n2c1`, the AC50 in assay [2] is > 100 µM (inactive).

Take `CC1(C)CC(=O)c2cnc(N3CCc4ccccc43)nc2C1`: the AC50 in assay [2] was > 100 µM (inactive).

As to `CCN(CC)CCN(C(=O)c1ccc2c(c1)OCCO2)c1nc2cc(C)cc(C)c2s1`, the AC50 in assay [2] is > 100 µM (inactive).

Regarding `COc1cccc(CNC(=O)CCSCc2ccccc2F)c1`, in assay [2], the AC50 is > 100 µM (inactive).

As to `Cc1sc(NC(=O)CN2CCOCC2)nc1-c1ccc2c(c1)CCN2S(=O)(=O)c1ccccc1`, the AC50 in assay [2] is > 100 µM (inactive).

Turning to `Cc1ccccc1-n1ncc2c1CC(C)(C)CC2NC(=O)CCN1Cc2ccccc2C1=O` (stereo unspecified), in assay [2], the AC50 was > 100 µM (inactive).

Turning to `CCOC(=O)c1cccc(OS(=O)(=O)Cc2ccccc2)c1`, the AC50 in assay [2] is > 100 µM (inactive).

For `CCn1nc(Cc2cccc3ccccc23)c(C#N)c1N`, in assay [2], the AC50 is > 100 µM (inactive).

On to `Cc1ccc(C2NC(=O)c3[nH]nc(-c4ccccc4)c32)cc1` (stereo unspecified), for which the AC50 in assay [2] is > 100 µM (inactive).

For `Nc1nc(=S)ss1`, the AC50 in assay [2] was > 100 µM (inactive).

As to `CCOc1ccc(OCc2cccc(C(=O)O)c2)cc1`, the AC50 in assay [2] was > 100 µM (inactive).

As for `O=C(O)c1cc2ccc3ccccc3c2[nH]1`, in assay [2], the AC50 was > 100 µM (inactive).

For `C[C@@H]1CCCCO[C@@H](CN(C)C(=O)c2ccccc2)[C@H](C)CN([C@@H](C)CO)C(=O)c2cc(NC(=O)c3ccccc3)ccc2O1`, the AC50 in assay [2] was > 100 µM (inactive).

Turning to `CCCCNc1ccc2c(c1)OC[C@@H](Cc1ccccc1)NS2(=O)=O`, the AC50 in assay [2] is > 100 µM (inactive).

On to `O=C(Cc1coc2ccc3ccccc3c12)NCc1ccccc1`, for which the AC50 in assay [2] is > 100 µM (inactive).

As for `CCOC(=O)c1csc(NC(=O)CC2CCCC2)n1`, the AC50 in assay [2] is > 100 µM (inactive).

Turning to `COc1ccc(OC)c(-c2nnc3n2N=C(c2ccc(OC)c(OC)c2)CS3)c1`, the AC50 in assay [2] is > 100 µM (inactive).

`CCOc1ccc2nc(NC(=O)CSc3nc(SC)ns3)sc2c1`: in assay [2], the AC50 is > 100 µM (inactive).

On to `O=C(c1ccccc1)N(c1ccccc1)c1nccc2ccccc12`, for which the AC50 in assay [2] was > 100 µM (inactive).

One may read the AC50 as the concentration giving half of the maximal activity seen.
